Measurements taken from patent publication US20260159810A1, “MEDIUM COMPOSITION FOR INDUCING DIFFERENTIATION FROM STEM CELLS TO MACROPHAGES AND DIFFERENTIATION METHOD USING SAME” (SUNGKWANG MEDICAL FOUNDATION, priority 2022, published 2026).

Experiments:
[1] = system: mouse thymus cells; experiment: Measurement of phagocytosis: differentiated macrophages co-cultured with fluorescently stained target cells; type: cell-based; conditions: various E:T ratios; cells positive for both CD11b and target-cell fluorescence; FIG. 7
Protocol: Phagocytosis of macrophages obtained from Example 1 and Comparative Example 1 was confirmed. Specifically, macrophages (effectors) obtained from Example 1 and Comparative Example 1 were co-cultured with mouse thymus cells (targets, fluorescently stained) at various E:T (effector:target) ratios. After co-culture, cells were collected and phagocytosis of macrophages was measured by measuring cells that simultaneously expressed macrophage-specific markers (CD11b) and fluorescence that had been stained on target cells.

[2] = system: macrophage-specific markers (MHC 1, MHC 2, CD11b, CD86, CX3CR1, CD16) in hPSC-derived floating cells; experiment: Identification of macrophage-specific markers by FACS; type: cell-based, human; conditions: medium supplemented with fasudil during differentiation to macrophages
Protocol: The expression pattern of markers specific to macrophages in the cells obtained in Example 1, Comparative Example 1, and Comparative Example 2 was investigated. Specifically, confirmation was performed using fluorescence-activated cell sorting (FACS, BD FACSCalibur™). Results of cells expressing CD11b, a surface marker of macrophages, and CD86, which is expressed in antigen presenting cells, confirmed through FACS are shown in FIG. 5. Results of cells expressing CX3CR1, which regulates macrophage function in inflammatory sites, and CD16, which is associated with antibody-dependent cell-mediated cytotoxicity (ADCC), confirmed through FACS are shown in FIG. 6.

For `O=S(=O)(c1cccc2cnccc12)N1CCCNCC1` [fasudil], the phagocytosis of macrophages [1] was “increased” and the “expression of macrophage-specific markers” value [2] was “increased”.
